Experiments:
Test in all cases: relative viability (nuclei count vs DMSO), 5 days (fraction); higher = more cells survive
VE-821 + Lapatinib = compound: CS(=O)(=O)c1ccc(-c2cnc(N)c(C(=O)Nc3ccccc3)n2)cc1 [VE-821] + CS(=O)(=O)CCNCc1ccc(-c2ccc3ncnc(Nc4ccc(OCc5cccc(F)c5)c(Cl)c4)c3c2)o1 [Lapatinib] (partner 2 µM)
Method in brief: (§1)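 Lung cancer cell lines, seeded in 1536-well plates, were treated the following day by pin tool with a single drug or with five library-drug doses (not always all listed) in √10 steps on top of a fixed anchor-drug dose. Cells were fixed and nuclei stained in one step after 5 days, and nuclei were counted. Relative viability is the nuclei count for treated wells divided by that for vehicle wells, reported as medians of duplicate plates.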

Vismodegib + Trametinib = compound: CS(=O)(=O)c1ccc(C(=O)Nc2ccc(Cl)c(-c3ccccn3)c2)c(Cl)c1 [Vismodegib] + CC(=O)Nc1cccc(-n2c(=O)n(C3CC3)c(=O)c3c(Nc4ccc(I)cc4F)n(C)c(=O)c(C)c32)c1 [Trametinib] (partner 0.02 µM)
Method in brief: as §1

Vismodegib + Lapatinib = compound: CS(=O)(=O)c1ccc(C(=O)Nc2ccc(Cl)c(-c3ccccn3)c2)c(Cl)c1 [Vismodegib] + CS(=O)(=O)CCNCc1ccc(-c2ccc3ncnc(Nc4ccc(OCc5cccc(F)c5)c(Cl)c4)c3c2)o1 [Lapatinib] (partner 2 µM)
Method in brief: as §1

Vismodegib + Dasatinib = compound: CS(=O)(=O)c1ccc(C(=O)Nc2ccc(Cl)c(-c3ccccn3)c2)c(Cl)c1 [Vismodegib] + Cc1nc(Nc2ncc(C(=O)Nc3c(C)cccc3Cl)s2)cc(N2CCN(CCO)CC2)n1 [Dasatinib] (partner 0.075 µM)
Method in brief: as §1

Cell Line: RERF-LC-KJ
- relative viability (VE-821 + Lapatinib; first compound 0.08 µM): 0.92
- relative viability (VE-821 + Lapatinib; first compound 0.253 µM): 0.756
- relative viability (VE-821 + Lapatinib; first compound 0.8 µM): 0.798
- relative viability (VE-821 + Lapatinib; first compound 2.53 µM): 0.772
- relative viability (VE-821 + Lapatinib; first compound 8 µM): 0.715
- relative viability (Vismodegib + Trametinib; first compound 0.08 µM): 0.847
- relative viability (Vismodegib + Trametinib; first compound 0.253 µM): 0.823
- relative viability (Vismodegib + Trametinib; first compound 0.8 µM): 0.84
- relative viability (Vismodegib + Trametinib; first compound 2.53 µM): 0.826
- relative viability (Vismodegib + Trametinib; first compound 8 µM): 0.862
- relative viability (Vismodegib + Lapatinib; first compound 0.08 µM): 0.902
- relative viability (Vismodegib + Lapatinib; first compound 0.253 µM): 0.848
- relative viability (Vismodegib + Lapatinib; first compound 0.8 µM): 0.762
- relative viability (Vismodegib + Lapatinib; first compound 2.53 µM): 0.817
- relative viability (Vismodegib + Lapatinib; first compound 8 µM): 0.826
- relative viability (Vismodegib + Dasatinib; first compound 0.08 µM): 0.779
- relative viability (Vismodegib + Dasatinib; first compound 0.253 µM): 0.676
- relative viability (Vismodegib + Dasatinib; first compound 0.8 µM): 0.75
- relative viability (Vismodegib + Dasatinib; first compound 2.53 µM): 0.758
- relative viability (Vismodegib + Dasatinib; first compound 8 µM): 0.768

Cell Line: NCI-H1975
- relative viability (VE-821 + Lapatinib; first compound 0.08 µM): 0.884
- relative viability (VE-821 + Lapatinib; first compound 0.253 µM): 0.531
- relative viability (VE-821 + Lapatinib; first compound 0.8 µM): 0.856
- relative viability (VE-821 + Lapatinib; first compound 2.53 µM): 0.948
- relative viability (VE-821 + Lapatinib; first compound 8 µM): 0.669
- relative viability (Vismodegib + Trametinib; first compound 0.08 µM): 0.32
- relative viability (Vismodegib + Trametinib; first compound 0.253 µM): 0.24
- relative viability (Vismodegib + Trametinib; first compound 0.8 µM): 0.374
- relative viability (Vismodegib + Trametinib; first compound 2.53 µM): 0.357
- relative viability (Vismodegib + Trametinib; first compound 8 µM): 0.331
- relative viability (Vismodegib + Lapatinib; first compound 0.08 µM): 0.848
- relative viability (Vismodegib + Lapatinib; first compound 0.253 µM): 0.819
- relative viability (Vismodegib + Lapatinib; first compound 0.8 µM): 0.966
- relative viability (Vismodegib + Lapatinib; first compound 2.53 µM): 0.803
- relative viability (Vismodegib + Lapatinib; first compound 8 µM): 0.946
- relative viability (Vismodegib + Dasatinib; first compound 0.08 µM): 0.347
- relative viability (Vismodegib + Dasatinib; first compound 0.253 µM): 0.338
- relative viability (Vismodegib + Dasatinib; first compound 0.8 µM): 0.371
- relative viability (Vismodegib + Dasatinib; first compound 2.53 µM): 0.267
- relative viability (Vismodegib + Dasatinib; first compound 8 µM): 0.348

Cell Line: SK-MES-1
- relative viability (VE-821 + Lapatinib; first compound 0.08 µM): 0.483
- relative viability (VE-821 + Lapatinib; first compound 0.253 µM): 0.467
- relative viability (VE-821 + Lapatinib; first compound 0.8 µM): 0.437
- relative viability (VE-821 + Lapatinib; first compound 2.53 µM): 0.446
- relative viability (VE-821 + Lapatinib; first compound 8 µM): 0.397
- relative viability (Vismodegib + Trametinib; first compound 0.08 µM): 0.574
- relative viability (Vismodegib + Trametinib; first compound 0.253 µM): 0.504
- relative viability (Vismodegib + Trametinib; first compound 0.8 µM): 0.553
- relative viability (Vismodegib + Trametinib; first compound 2.53 µM): 0.558
- relative viability (Vismodegib + Trametinib; first compound 8 µM): 0.545
- relative viability (Vismodegib + Lapatinib; first compound 0.08 µM): 0.498
- relative viability (Vismodegib + Lapatinib; first compound 0.253 µM): 0.475
- relative viability (Vismodegib + Lapatinib; first compound 0.8 µM): 0.404
- relative viability (Vismodegib + Lapatinib; first compound 2.53 µM): 0.484
- relative viability (Vismodegib + Lapatinib; first compound 8 µM): 0.499
- relative viability (Vismodegib + Dasatinib; first compound 0.08 µM): 0.401
- relative viability (Vismodegib + Dasatinib; first compound 0.253 µM): 0.313
- relative viability (Vismodegib + Dasatinib; first compound 0.8 µM): 0.407
- relative viability (Vismodegib + Dasatinib; first compound 2.53 µM): 0.413
- relative viability (Vismodegib + Dasatinib; first compound 8 µM): 0.429

Cell Line: NCI-H2170
- relative viability (VE-821 + Lapatinib; first compound 0.08 µM): 0.289
- relative viability (VE-821 + Lapatinib; first compound 0.253 µM): 0.278
- relative viability (VE-821 + Lapatinib; first compound 0.8 µM): 0.256
- relative viability (VE-821 + Lapatinib; first compound 2.53 µM): 0.272
- relative viability (VE-821 + Lapatinib; first compound 8 µM): 0.272
- relative viability (Vismodegib + Trametinib; first compound 0.08 µM): 0.89
- relative viability (Vismodegib + Trametinib; first compound 0.253 µM): 0.897
- relative viability (Vismodegib + Trametinib; first compound 0.8 µM): 1
- relative viability (Vismodegib + Trametinib; first compound 2.53 µM): 0.857
- relative viability (Vismodegib + Trametinib; first compound 8 µM): 0.987
- relative viability (Vismodegib + Lapatinib; first compound 0.08 µM): 0.258
- relative viability (Vismodegib + Lapatinib; first compound 0.253 µM): 0.271
- relative viability (Vismodegib + Lapatinib; first compound 0.8 µM): 0.26
- relative viability (Vismodegib + Lapatinib; first compound 2.53 µM): 0.307
- relative viability (Vismodegib + Lapatinib; first compound 8 µM): 0.28
- relative viability (Vismodegib + Dasatinib; first compound 0.08 µM): 0.542
- relative viability (Vismodegib + Dasatinib; first compound 0.253 µM): 0.623
- relative viability (Vismodegib + Dasatinib; first compound 0.8 µM): 0.627
- relative viability (Vismodegib + Dasatinib; first compound 2.53 µM): 0.62
- relative viability (Vismodegib + Dasatinib; first compound 8 µM): 0.639

Cell Line: NCI-H661
- relative viability (VE-821 + Lapatinib; first compound 0.08 µM): 0.592
- relative viability (VE-821 + Lapatinib; first compound 0.253 µM): 0.427
- relative viability (VE-821 + Lapatinib; first compound 0.8 µM): 0.396
- relative viability (VE-821 + Lapatinib; first compound 2.53 µM): 0.486
- relative viability (VE-821 + Lapatinib; first compound 8 µM): 0.381
- relative viability (Vismodegib + Trametinib; first compound 0.08 µM): 0.549
- relative viability (Vismodegib + Trametinib; first compound 0.253 µM): 0.611
- relative viability (Vismodegib + Trametinib; first compound 0.8 µM): 0.649
- relative viability (Vismodegib + Trametinib; first compound 2.53 µM): 0.558
- relative viability (Vismodegib + Trametinib; first compound 8 µM): 0.622
- relative viability (Vismodegib + Lapatinib; first compound 0.08 µM): 0.464
- relative viability (Vismodegib + Lapatinib; first compound 0.253 µM): 0.488
- relative viability (Vismodegib + Lapatinib; first compound 0.8 µM): 0.534
- relative viability (Vismodegib + Lapatinib; first compound 2.53 µM): 0.483
- relative viability (Vismodegib + Lapatinib; first compound 8 µM): 0.493
- relative viability (Vismodegib + Dasatinib; first compound 0.08 µM): 0.807
- relative viability (Vismodegib + Dasatinib; first compound 0.253 µM): 0.815
- relative viability (Vismodegib + Dasatinib; first compound 0.8 µM): 0.897
- relative viability (Vismodegib + Dasatinib; first compound 2.53 µM): 0.892
- relative viability (Vismodegib + Dasatinib; first compound 8 µM): 0.856

Cell Line: HOP-62
- relative viability (VE-821 + Lapatinib; first compound 0.08 µM): 1.16
- relative viability (VE-821 + Lapatinib; first compound 0.253 µM): 1.03
- relative viability (VE-821 + Lapatinib; first compound 0.8 µM): 0.958
- relative viability (VE-821 + Lapatinib; first compound 2.53 µM): 1.06
- relative viability (VE-821 + Lapatinib; first compound 8 µM): 0.947
- relative viability (Vismodegib + Trametinib; first compound 0.08 µM): 0.357
- relative viability (Vismodegib + Trametinib; first compound 0.253 µM): 0.379
- relative viability (Vismodegib + Trametinib; first compound 0.8 µM): 0.37
- relative viability (Vismodegib + Trametinib; first compound 2.53 µM): 0.354
- relative viability (Vismodegib + Trametinib; first compound 8 µM): 0.376
- relative viability (Vismodegib + Lapatinib; first compound 0.08 µM): 0.981
- relative viability (Vismodegib + Lapatinib; first compound 0.253 µM): 0.891
- relative viability (Vismodegib + Lapatinib; first compound 0.8 µM): 0.934
- relative viability (Vismodegib + Lapatinib; first compound 2.53 µM): 1.04
- relative viability (Vismodegib + Lapatinib; first compound 8 µM): 0.926
- relative viability (Vismodegib + Dasatinib; first compound 0.08 µM): 0.663
- relative viability (Vismodegib + Dasatinib; first compound 0.253 µM): 0.694
- relative viability (Vismodegib + Dasatinib; first compound 0.8 µM): 0.609
- relative viability (Vismodegib + Dasatinib; first compound 2.53 µM): 0.683
- relative viability (Vismodegib + Dasatinib; first compound 8 µM): 0.683

Cell Line: HCC-15
- relative viability (VE-821 + Lapatinib; first compound 0.08 µM): 0.958
- relative viability (VE-821 + Lapatinib; first compound 0.253 µM): 0.875
- relative viability (VE-821 + Lapatinib; first compound 0.8 µM): 0.87
- relative viability (VE-821 + Lapatinib; first compound 2.53 µM): 1.09
- relative viability (VE-821 + Lapatinib; first compound 8 µM): 0.796
- relative viability (Vismodegib + Trametinib; first compound 0.08 µM): 0.356
- relative viability (Vismodegib + Trametinib; first compound 0.253 µM): 0.352
- relative viability (Vismodegib + Trametinib; first compound 0.8 µM): 0.345
- relative viability (Vismodegib + Trametinib; first compound 2.53 µM): 0.401
- relative viability (Vismodegib + Trametinib; first compound 8 µM): 0.383
- relative viability (Vismodegib + Lapatinib; first compound 0.08 µM): 0.883
- relative viability (Vismodegib + Lapatinib; first compound 0.253 µM): 0.854
- relative viability (Vismodegib + Lapatinib; first compound 0.8 µM): 0.823
- relative viability (Vismodegib + Lapatinib; first compound 2.53 µM): 0.882
- relative viability (Vismodegib + Lapatinib; first compound 8 µM): 0.74
- relative viability (Vismodegib + Dasatinib; first compound 0.08 µM): 0.631
- relative viability (Vismodegib + Dasatinib; first compound 0.253 µM): 0.58
- relative viability (Vismodegib + Dasatinib; first compound 0.8 µM): 0.582
- relative viability (Vismodegib + Dasatinib; first compound 2.53 µM): 0.66
- relative viability (Vismodegib + Dasatinib; first compound 8 µM): 0.585

Cell Line: A-427
- relative viability (VE-821 + Lapatinib; first compound 0.08 µM): 1.08
- relative viability (VE-821 + Lapatinib; first compound 0.253 µM): 0.998
- relative viability (VE-821 + Lapatinib; first compound 0.8 µM): 1.06
- relative viability (VE-821 + Lapatinib; first compound 2.53 µM): 1.1
- relative viability (VE-821 + Lapatinib; first compound 8 µM): 0.676
- relative viability (Vismodegib + Trametinib; first compound 0.08 µM): 0.812
- relative viability (Vismodegib + Trametinib; first compound 0.253 µM): 0.82
- relative viability (Vismodegib + Trametinib; first compound 0.8 µM): 0.654
- relative viability (Vismodegib + Trametinib; first compound 2.53 µM): 0.777
- relative viability (Vismodegib + Trametinib; first compound 8 µM): 0.913
- relative viability (Vismodegib + Lapatinib; first compound 0.08 µM): 1.09
- relative viability (Vismodegib + Lapatinib; first compound 0.253 µM): 1.04
- relative viability (Vismodegib + Lapatinib; first compound 0.8 µM): 1.01
- relative viability (Vismodegib + Lapatinib; first compound 2.53 µM): 0.977
- relative viability (Vismodegib + Lapatinib; first compound 8 µM): 1.13
- relative viability (Vismodegib + Dasatinib; first compound 0.08 µM): 0.647
- relative viability (Vismodegib + Dasatinib; first compound 0.253 µM): 0.65
- relative viability (Vismodegib + Dasatinib; first compound 0.8 µM): 0.609
- relative viability (Vismodegib + Dasatinib; first compound 2.53 µM): 0.642
- relative viability (Vismodegib + Dasatinib; first compound 8 µM): 0.804

— the supplement of paper PMC10307832
